According to patent US6664231B1, “Anti-fungal peptides” (priority 1993, dated 2003):
Square brackets hold non-standard residues; d marks the D form. Peptide text beside a SMILES is read from it. * marks the point of attachment. Phe(4-NH2) = Nc1ccc(C[C@H](N)C(=O)O)cc1; d2Nal = N[C@H](Cc1ccc2ccccc2c1)C(=O)O; Lauroyl = CCCCCCCCCCCC(=O)*; Octanoyl = CCCCCCCC(=O)*; Orn = NCCC[C@H](N)C(=O)O; Dab = NCC[C@H](N)C(=O)O

Experiments:
[1] = tested on: C. albicans (CA-1, Strain SLU-1); test: Radial diffusion assay; format: cell-based, Candida albicans; settings: pmoles of peptide added to well to achieve a 30 mm^2 zone, PROBIT analysis, crude or purified (P′) peptide
Summary of the method: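 Peptides, serially diluted 2-fold in D-PBS (top ~1 mg/mL), diffused 3 h at 37° C into pH 7.4 phosphate-buffered agarose seeded with 1×10^6 CFU/mL yeast, before overnight growth under a 6% Sabouraud overlayer. Net inhibition zones measured after Coomassie staining; PROBIT fit of log pmol vs area gave pmol for 30 mm^2.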

in vitro = in vitro ADME, rat or human serum; settings: serum, half-life of peptide in serum as detected by HPLC analysis; read-out: HPLC Peptide in Serum t ½ (converted)
Procedure: (§1) For these serum stability experiments, peptides were prepared by solid phase peptide sythesis and purified to 94% or greater purity as described in Example 1. Blood was collected from metaphane anesthesized rats by aortic bleed into Vacutainer™ tubes and allowed to clot at room temperature for approximately 30 minutes, then centrifuged at 3000 rpm (about 1000×g) for 10 minutes at room temperature and the serum aspirated. In addition, frozen human serum (North American Biologics, Inc., Miami, Fla., cat. no. 2140, lot no. 94115) was thawed at room temperature and filtered through a 0.45 μm membrane before use.
(§2) A 1 mg/mL solution of an exemplary XMP peptide to be tested was added to an equal volume of either rat or human serum described above and maintained at 37° C. At 0, 1, 2, and 4 hours, 100 μL were removed and processed by solid phase extraction for HPLC analysis as follows. Serum samples were prepared for HPLC using C-18 Sep-Pak cartridges (1 mL cartridge with 100 mg of sorbent, Waters Corp., Milford, Mass.). One hundred μL of serum sample were added to an equal volume of 1% TFA and mixed for 30 seconds on a Vortex mixer. The sample was then applied to a C-18 Sep-Pak cartridge that had been conditioned by washing with 1 mL of methanol followed by 1 mL Milli-Q water. Weakly reed components were eluted by washing with 1 mL of 0. 1% TFA. The bound peptide was eluted with two volumes of 250 μL 80% acetonitrile/0.065% TFA.
The material eluted from the Sep-Pak cartridge was analyzed on a Michrom Ultaafast Microprotein Analyzer equipped with a 150 mm×1 mm, 5μ particle, 300 Å pore C-8 Zorbax column. The column oven was set to 40° C., the flow rate was 100 μL/minute, and injection volumes were typically 5-10 μL. HPLC was performed using 5% acetonitrile/0.1% TFA in water as mobile phase A, and 80% acetonitrile/0.065% TFA as mobile phase B. The eluate was monitored spectiophotometrically at 214 nm. Peptide standards were dissolved in mobile phase A at 0. 1 mg/mL. The gradient was 25-35% B/10 minutes followed by a 5 minute wash step of 100% B and reequilibration at 25% B for 10 minutes.

[2] = Serum stability, anti-fungal activity after serum incubation by radial diffusion bioassay; format: in vitro ADME, rat or human serum; settings: Activity in Serum t ½ (hr.)
Procedure: as §1, §2
The peptides identified and purified after serum incubation as described above were subjected to N-terminal peptide sequencing performed on an Applied Biosystems Model 477A/120A sequencer and to electrospray ionization mass spectrometry (ESI/MS) performed using a VG Biotech Bio-Q Mass Spectrometer. In addition, the peptides identified and purified after serum incubation as described above were also tested for their anti-fungal activity in a radial diffusion bioassay with Candida albicans SLU-1 strain as described in Example 2.

[3] = tested on: mouse RAW 264.7 cells incubated with E. coli O113 LPS; settings: RAW 264.7 cells with E. coli O113 LPS; concentration reversing LPS growth inhibition by 50%
mouse RAW 264.7 cells = settings: RAW 264.7 cell growth inhibited by 50%

Compound	C. albicans pmol/30 mm^2 zone [1]	half-life at 0.5 mg/mL (in vitro) [h]	half-life at 0.5 mg/mL [2] [h]	also measured
H-KKPWAIQLKK-NH2 [XMP.379]	547 pmol/30 mm^2 zone	0.8	0.3	–
CC[C@H](C)[C@H](NC(=O)[C@H](CC(C)C)NC(=O)[C@@H](Cc1ccc2ccccc2c1)NC(=O)[C@H](CCCCN)NC(=O)[C@@H](N)CCCCN)C(=O)N[C@@H](CC(C)C)C(=O)N[C@@H](CC(C)C)C(=O)N[C@@H](CCCCN)C(=O)N[C@@H](CCCCN)C(N)=O [XMP.347] (H-KK[d2Nal]LILLKK-NH2)	391 pmol/30 mm^2 zone	2.5	5.2	–
CCCCCCCCCCCC(=O)N[C@@H](CCCCN)C(=O)N[C@@H](CCCCN)C(=O)N[C@@H](Cc1c[nH]c2ccccc12)C(=O)N[C@@H](C)C(=O)N[C@H](C(=O)N[C@@H](CCC(N)=O)C(=O)N[C@@H](CC(C)C)C(=O)N[C@@H](CCCCN)C(=O)N[C@@H](CCCCN)C(N)=O)[C@@H](C)CC [XMP.411] (Lauroyl-KKWAIQLKK-NH2; C-terminus assumed)	–	9.7	4.2	In Vitro LPS Neutralization EC50 [3]: 2.94 ± 0.14 µg/mL; IC50 (toxicity/growth inhibition of peptide) (mouse RAW 264.7 cells): >25 µg/mL
H-KKWAIQLKK-NH2 [XMP.344]	251 pmol/30 mm^2 zone	0.6	3.3	–
CC[C@H](C)[C@H](NC(=O)[C@H](CC(C)C)NC(=O)[C@H](Cc1c[nH]c2ccccc12)NC(=O)[C@H](CCCCN)NC(C)=O)C(=O)N[C@@H](CCCN)C(=O)N[C@@H](CC(C)C)C(=O)N[C@@H](Cc1ccccc1)C(=O)N[C@@H](Cc1c[nH]cn1)C(=O)N[C@@H](CCCCN)C(=O)N[C@@H](CCCCN)C(N)=O [XMP.370] (Ac-KWLI[Orn]LFHKK-NH2)	310 pmol/30 mm^2 zone	2.9	4.7	–
H-PWAIQLFHKK-NH2 [XMP.387]	82 pmol/30 mm^2 zone	2.8	2.3	–
H-GWLIQLFHKK-NH2 [XMP.388]	170 pmol/30 mm^2 zone	0.4	1.4	–
CC[C@H](C)[C@H](NC(=O)[C@H](CC(C)C)NC(=O)[C@H](Cc1ccc(N)cc1)NC(=O)CNC(=O)[C@@H](NC(=O)[C@H](CCCCN)NC(=O)[C@H](CO)NC(=O)[C@@H](N)CCCCN)C(C)C)C(=O)N[C@@H](CCC(N)=O)C(=O)N[C@@H](CC(C)C)C(=O)N[C@@H](Cc1ccccc1)C(=O)N[C@@H](Cc1c[nH]cn1)C(=O)N[C@@H](CCCCN)C(=O)N[C@@H](CCCCN)C(N)=O [XMP.133] (H-KSKVG[Phe(4-NH2)]LIQLFHKK-NH2)	284 pmol/30 mm^2 zone	–	14	–
Ac-PWLIQLFHKK-NH2 [XMP.356]	550 pmol/30 mm^2 zone	–	0.9	–
CC[C@H](C)[C@H](NC(=O)[C@H](CC(C)C)NC(=O)[C@H](Cc1c[nH]c2ccccc12)NC(=O)[C@@H](N)CCCCN)C(=O)N[C@@H](CCCN)C(=O)N[C@@H](CC(C)C)C(=O)N[C@@H](Cc1ccccc1)C(=O)N[C@@H](Cc1c[nH]cn1)C(=O)N[C@@H](CCCCN)C(=O)N[C@@H](CCCCN)C(N)=O [XMP.369] (H-KWLI[Orn]LFHKK-NH2)	993 pmol/30 mm^2 zone	0.6	1.4	C. albicans pmol/30 mm^2 zone ([1]; listed as XMP.369P′): 877 pmol/30 mm^2 zone
H-PWLIQLFHKK-NH2 [XMP.355]	2,529 pmol/30 mm^2 zone	3.2	5.7	C. albicans pmol/30 mm^2 zone ([1]; listed as XMP.355P′): 218 pmol/30 mm^2 zone
CCCCCCCC(=O)N[C@@H](CCCCN)C(=O)N[C@@H](CCCCN)C(=O)N[C@@H](Cc1c[nH]c2ccccc12)C(=O)N[C@@H](C)C(=O)N[C@H](C(=O)N[C@@H](CCC(N)=O)C(=O)N[C@@H](CC(C)C)C(=O)N[C@@H](CCCCN)C(=O)N[C@@H](CCCCN)C(N)=O)[C@@H](C)CC [XMP.410] (Octanoyl-KKWAIQLKK-NH2)	599 pmol/30 mm^2 zone	–	2.9	In Vitro LPS Neutralization EC50 [3]: >25 µg/mL; IC50 (toxicity/growth inhibition of peptide) (mouse RAW 264.7 cells): NA (NA for IC50 means no evidence of decreased RAW cell growth at up to 50 μg/ml)
H-KKWLIQLFKK-NH2 [XMP.351]	385 pmol/30 mm^2 zone	–	0.4	–
CC[C@H](C)[C@H](NC(=O)[C@H](CC(C)C)NC(=O)[C@H](Cc1c[nH]c2ccccc12)NC(=O)[C@H](CCCCN)NC(=O)[C@@H]1CCCN1)C(=O)N[C@@H](CCC(N)=O)C(=O)N[C@@H](CC(C)C)C(=O)N[C@@H](CCCCN)C(=O)N[C@@H](CCCCN)C(N)=O [XMP.335]	871 pmol/30 mm^2 zone	2.9	1.3	C. albicans pmol/30 mm^2 zone ([1]; listed as XMP.335P′): 1,353 pmol/30 mm^2 zone
H-KKLLLLLKK-NH2 [XMP.385]	127 pmol/30 mm^2 zone	–	2.7	–
CC[C@H](C)[C@H](NC(=O)[C@H](CC(C)C)NC(=O)[C@H](Cc1c[nH]c2ccccc12)NC(=O)[C@H](CCCN)NC(=O)[C@@H](N)CCCN)C(=O)N[C@@H](CCC(N)=O)C(=O)N[C@@H](CC(C)C)C(=O)N[C@@H](CCCN)C(=O)N[C@@H](CCCN)C(N)=O [XMP.338]	1,194 pmol/30 mm^2 zone	–	4.7	–
H-KKWLIQLFHKK-NH2 [XMP.352]	354 pmol/30 mm^2 zone	0.7	1.2	–
H-KKWLIQAKK-NH2 [XMP.345]	1,211 pmol/30 mm^2 zone	1.4	2.7	–
CC[C@H](C)[C@H](NC(=O)[C@H](CC(C)C)NC(=O)[C@H](Cc1c[nH]c2ccccc12)NC(=O)[C@H](CCCCN)NC(=O)[C@H]1CCCN1)C(=O)N[C@@H](CCC(N)=O)C(=O)N[C@@H](CC(C)C)C(=O)N[C@@H](CCCCN)C(=O)N[C@@H](CCCCN)C(N)=O [XMP.334]	1,449 pmol/30 mm^2 zone	3.2	4.7	C. albicans pmol/30 mm^2 zone ([1]; listed as XMP.334P′): 1,065 pmol/30 mm^2 zone
CC[C@@H](C)[C@@H](NC(=O)[C@@H](CCC(N)=O)NC(=O)[C@@H](CC(C)C)NC(=O)[C@@H](Cc1ccccc1)NC(=O)[C@@H](Cc1c[nH]cn1)NC(=O)[C@@H](CCCCN)NC(=O)[C@@H](CCCCN)NC(C)=O)C(=O)N[C@H](CC(C)C)C(=O)N[C@H](Cc1c[nH]c2ccccc12)C(=O)N[C@H](CCCCN)C(N)=O [XMP.368]	744 pmol/30 mm^2 zone	34.1	25.2	–
H-KWLIQLFHKP-NH2 [XMP.357]	204 pmol/30 mm^2 zone	–	0.8	–
CC[C@H](C)[C@H](NC(=O)[C@H](CC(C)C)NC(=O)[C@H](Cc1c[nH]c2ccccc12)NC(=O)[C@H](CCCCN)NC(C)=O)C(=O)N[C@@H](CCN)C(=O)N[C@@H](CC(C)C)C(=O)N[C@@H](Cc1ccccc1)C(=O)N[C@@H](Cc1c[nH]cn1)C(=O)N[C@@H](CCCCN)C(=O)N[C@@H](CCCCN)C(N)=O [XMP.372] (Ac-KWLI[Dab]LFHKK-NH2)	328 pmol/30 mm^2 zone	6.6	1.4	–
H-KKWLIQLKKK-NH2 [XMP.349]	120 pmol/30 mm^2 zone	1.4	3.3	–
